Results published in PubChem BioAssay AID330 (DTP/NCI, 2004).
Values joined by “and” are separate entries in the source; they are usually repeats but may differ in a detail not shown here. Identical values can stand only once. Inconclusive results and toxic doses are left out. Peptide text beside a SMILES is read from it. * marks the point of attachment. Cbz = O=C(OCc1ccccc1)*

Test system: P388 leukemia ip, CD2F1 mice, survival T/C
Experiment: NCI In Vivo Anticancer Drug Screen. Data for tumor model P388 Leukemia (intraperitoneal) in CD2F1 (CDF1) mice
Conditions: endpoint: median survival time, higher = longer survival
Outline: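 Mice carrying the transplanted tumor received test compound or vehicle. Survival was recorded in each group, and the value is the treated-group measurement divided by that of the vehicle-treated control group.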

[1] = dose: 100.0 mg/kg/injection, schedule: Q04DX003 (ip), vehicle: saline with Tween-80
[2] = dose: 200.0 mg/kg/injection, schedule: Q04DX003 (ip), vehicle: saline with Tween-80
[3] = dose: 50.0 mg/kg/injection, schedule: Q01DX005 (ip), vehicle: saline with Tween-80
[4] = dose: 100.0 mg/kg/injection, schedule: Q01DX005 (ip), vehicle: saline with Tween-80
[5] = dose: 200.0 mg/kg/injection, schedule: Q01DX005 (ip), vehicle: saline with Tween-80
[6] = dose: 25.0 mg/kg/injection, schedule: Q01DX001 (ip), vehicle: saline with Tween-80
[7] = dose: 50.0 mg/kg/injection, schedule: Q01DX001 (ip), vehicle: saline with Tween-80
[8] = dose: 100.0 mg/kg/injection, schedule: Q04DX002 (ip), vehicle: Klucel (hydroxypropylcellulose) (HPC)
[9] = dose: 200.0 mg/kg/injection, schedule: Q04DX002 (ip), vehicle: Klucel (hydroxypropylcellulose) (HPC)
[10] = dose: 400.0 mg/kg/injection, schedule: Q04DX002 (ip), vehicle: Klucel (hydroxypropylcellulose) (HPC)
[11] = dose: 50.0 mg/kg/injection, schedule: Q01DX005 (ip), vehicle: Klucel (hydroxypropylcellulose) (HPC)
[12] = dose: 100.0 mg/kg/injection, schedule: Q01DX005 (ip), vehicle: Klucel (hydroxypropylcellulose) (HPC)
[13] = dose: 60.0 mg/kg/injection, schedule: Q01DX005 (ip), vehicle: saline with Tween-80
[14] = dose: 120.0 mg/kg/injection, schedule: Q01DX005 (ip), vehicle: saline with Tween-80
[15] = dose: 60.0 mg/kg/injection, schedule: Q01DX005 (ip), vehicle: saline
[16] = dose: 120.0 mg/kg/injection, schedule: Q01DX005 (ip), vehicle: saline
[17] = dose: 240.0 mg/kg/injection, schedule: Q01DX005 (ip), vehicle: saline
[18] = dose: 50.0 mg/kg/injection, schedule: Q01DX001 (ip), vehicle: Klucel (hydroxypropylcellulose) (HPC)
[19] = dose: 100.0 mg/kg/injection, schedule: Q01DX001 (ip), vehicle: Klucel (hydroxypropylcellulose) (HPC)
[20] = dose: 25.0 mg/kg/injection, schedule: Q01DX001 (ip), vehicle: Klucel (hydroxypropylcellulose) (HPC)

CCC(=O)/C(=C\c1ccccc1Cl)C(C)=O
T/C [1]: 105 % of control | T/C [2]: 110 % of control | T/C (dose: 400.0 mg/kg/injection, schedule: Q04DX003 (ip), vehicle: saline with Tween-80): 95 % of control

CC(NC(=O)OCc1ccccc1)C(=O)NC(CCCN=C(N)N)C(=O)O (stereo not drawn) (Cbz-Ala-Arg-OH; configuration not given here)
T/C [3]: 100 % of control | T/C [4]: 105 % of control | T/C [5]: 108 % of control

O=C1CC2CCC(CN2C(=O)OCc2ccccc2)O1 (stereo not given)
T/C (dose: 60.0 mg/kg/injection, schedule: Q01DX005 (ip), vehicle: Klucel (hydroxypropylcellulose) (HPC)): 102 % of control | T/C (dose: 120.0 mg/kg/injection, schedule: Q01DX005 (ip), vehicle: Klucel (hydroxypropylcellulose) (HPC)): 99 % of control | T/C (dose: 240.0 mg/kg/injection, schedule: Q01DX005 (ip), vehicle: Klucel (hydroxypropylcellulose) (HPC)): 100 % of control

[N-]=[N+]=CC(=O)C1(c2ccccc2)OC1c1ccc([N+](=O)[O-])cc1 (stereo not given)
T/C (dose: 12.5 mg/kg/injection, schedule: Q01DX001 (ip), vehicle: saline with Tween-80): 94 % of control | T/C [6]: 93 % of control | T/C [7]: 86 % of control and 95 % of control

NCCCCC(NC(=O)c1ccccc1)C(=O)O (stereo not given)
T/C (dose: 50.0 mg/kg/injection, schedule: Q01DX009 (ip), vehicle: saline with Tween-80): 98 % of control | T/C (dose: 100.0 mg/kg/injection, schedule: Q01DX009 (ip), vehicle: saline with Tween-80): 100 % of control | T/C (dose: 200.0 mg/kg/injection, schedule: Q01DX009 (ip), vehicle: saline with Tween-80): 104 % of control

Cc1cn(O)ccc1=S
T/C [8]: 101 % of control | T/C [9]: 99 % of control | T/C [10]: 101 % of control

O=C1Nc2cnc(Cl)nc2Nc2ccccc21
T/C [11]: 99 % of control | T/C [12]: 91 % of control | T/C (dose: 200.0 mg/kg/injection, schedule: Q01DX005 (ip), vehicle: Klucel (hydroxypropylcellulose) (HPC)): 101 % of control

Cc1cc(=O)oc2cc(OC(=O)Nc3ccc(Cl)cc3C(F)(F)F)ccc12
T/C [13]: 90 % of control | T/C [14]: 95 % of control

C=C(C)c1nc(N)nc(-c2ccc([N+](=O)[O-])cc2)n1
T/C [8]: 88 % of control | T/C [9]: 88 % of control | T/C [10]: 88 % of control

CCCCCC1(c2ccccc2)CCCC(C#N)C1=O (stereo not given)
T/C [1]: 101 % of control | T/C [2]: 88 % of control

C=CCCOC1CCCCO1 (stereo not given)
T/C (dose: 50.0 mg/kg/injection, schedule: Q01DX009 (ip), vehicle: other): 104 % of control | T/C (dose: 100.0 mg/kg/injection, schedule: Q01DX009 (ip), vehicle: other): 104 % of control | T/C (dose: 200.0 mg/kg/injection, schedule: Q01DX009 (ip), vehicle: other): 100 % of control

CC(CN(C)C)C(/C=C/c1ccc(Cl)cc1)=N\NC(=O)c1ccccc1 (stereo not given)
T/C (dose: 15.0 mg/kg/injection, schedule: Q01DX005 (ip), vehicle: saline): 101 % of control | T/C (dose: 30.0 mg/kg/injection, schedule: Q01DX005 (ip), vehicle: saline): 100 % of control | T/C [15]: 104 % of control and 121 % of control | T/C [16]: 114 % of control

O=C(O)C(CS(=O)(=O)O)Nc1ncnc2nc[nH]c12 (stereo not given)
T/C (dose: 100.0 mg/kg/injection, schedule: Q01DX009 (ip), vehicle: saline): 100 % of control | T/C (dose: 200.0 mg/kg/injection, schedule: Q01DX009 (ip), vehicle: saline): 100 % of control | T/C (dose: 400.0 mg/kg/injection, schedule: Q01DX009 (ip), vehicle: saline): 109 % of control

CC(C(=O)c1ccccc1)c1nc2nnc(N)n2[nH]c1=O (stereo not given)
T/C [15]: 95 % of control | T/C [16]: 100 % of control | T/C [17]: 95 % of control

O=c1c(N=Nc2ccc(Br)cc2)c(O)n(-c2ccccc2Cl)c(=S)n1-c1ccccc1
T/C [18]: 94 % of control | T/C [19]: 98 % of control | T/C (dose: 200.0 mg/kg/injection, schedule: Q01DX001 (ip), vehicle: Klucel (hydroxypropylcellulose) (HPC)): 94 % of control

CC1CC(OC(=O)CSC#N)CC(C)(C)C1 (stereo not given)
T/C (dose: 12.5 mg/kg/injection, schedule: Q01DX005 (ip), vehicle: saline with Tween-80): 104 % of control | T/C (dose: 25.0 mg/kg/injection, schedule: Q01DX005 (ip), vehicle: saline with Tween-80): 101 % of control | T/C [3]: 101 % of control and 108 % of control

CN(C)c1ccc2nc3ccc(N)cc3[n+](-c3ccccc3)c2c1
T/C (dose: 3.12 mg/kg/injection, schedule: Q01DX005 (ip), vehicle: saline): 106 % of control | T/C (dose: 6.25 mg/kg/injection, schedule: Q01DX005 (ip), vehicle: saline): 106 % of control | T/C (dose: 12.5 mg/kg/injection, schedule: Q01DX005 (ip), vehicle: saline): 112 % of control

CCN=C(NCC)c1ccc(NC(=O)Nc2ccc(NC(=O)Nc3ccc(C(=NCC)NCC)cc3)cc2)cc1
T/C (dose: 3.12 mg/kg/injection, schedule: Q01DX005 (ip), vehicle: Klucel (hydroxypropylcellulose) (HPC)): 107 % of control | T/C (dose: 6.25 mg/kg/injection, schedule: Q01DX005 (ip), vehicle: Klucel (hydroxypropylcellulose) (HPC)): 111 % of control | T/C (dose: 12.5 mg/kg/injection, schedule: Q01DX005 (ip), vehicle: Klucel (hydroxypropylcellulose) (HPC)): 116 % of control | T/C (dose: 25.0 mg/kg/injection, schedule: Q01DX005 (ip), vehicle: Klucel (hydroxypropylcellulose) (HPC)): 156 % of control | T/C [11]: 122 % of control

C=C1[C@@H](NC)CC[C@]23C[C@]24CC[C@]2(C)[C@@H]([C@H](C)NC)[C@H](O)C[C@@]2(C)[C@@H]4CC[C@@H]13
T/C [6]: 104 % of control | T/C [7]: 99 % of control | T/C (dose: 100.0 mg/kg/injection, schedule: Q01DX001 (ip), vehicle: saline with Tween-80): 104 % of control

COc1c(OC)c(C2(O)C(=O)N(C)c3ccccc32)c(OC)c(OC)c1C1(O)C(=O)N(C)c2ccccc21 (stereo not given)
T/C [13]: 88 % of control | T/C [14]: 87 % of control | T/C (dose: 240.0 mg/kg/injection, schedule: Q01DX005 (ip), vehicle: saline with Tween-80): 87 % of control

CCC(=O)/C=C/c1ccc(N(Cl)Cl)cc1
T/C [20]: 107 % of control | T/C [18]: 106 % of control | T/C [19]: 104 % of control

COc1ccc2c(c1)C1(C)CC(OC1=O)C2=O (stereo not given)
T/C [20]: 99 % of control | T/C [18]: 100 % of control | T/C [19]: 100 % of control

CC(=O)/C(C(=N)c1nc(C)c(C(C)=O)c(C(N)=O)n1)=C(\C)O
T/C [11]: 103 % of control | T/C [12]: 100 % of control

CCOc1ccccc1N=Nc1c(C)nn(C(=S)SC)c1OCC
T/C (dose: 30.0 mg/kg/injection, schedule: Q01DX005 (ip), vehicle: Klucel + Tween-80): 91 % of control | T/C (dose: 60.0 mg/kg/injection, schedule: Q01DX005 (ip), vehicle: Klucel + Tween-80): 88 % of control and 95 % of control | T/C (dose: 120.0 mg/kg/injection, schedule: Q01DX005 (ip), vehicle: Klucel + Tween-80): 86 % of control

CCCCCc1onc(-c2noc(CCCCC)c2C)c1C
T/C [15]: 100 % of control | T/C [16]: 99 % of control | T/C [17]: 104 % of control

O=C(CCn1[nH]c(=O)c(Cl)c(Cl)c1=O)NNc1ccc([N+](=O)[O-])cc1[N+](=O)[O-]
T/C [3]: 92 % of control | T/C [4]: 103 % of control | T/C [5]: 92 % of control

CC(/C=C/C=C/C=C/C=C/C=C/C(O)=C1/C(=O)C(CCC(=O)O)N(C)C1=O)=C\C(C)C(OC1CC(O)C(O)C(C)O1)C(C)C (stereo not given)
T/C (dose: 1.0 mg/kg/injection, schedule: Q01DX005 (ip), vehicle: water): 121 % of control | T/C (dose: 2.0 mg/kg/injection, schedule: Q01DX005 (ip), vehicle: water): 165 % of control | T/C (dose: 4.0 mg/kg/injection, schedule: Q01DX005 (ip), vehicle: water): 112 % of control and 115 % of control | T/C (dose: 8.0 mg/kg/injection, schedule: Q01DX005 (ip), vehicle: water): 158 % of control and 163 % of control

COc1ccc(C(=NCCc2ccccc2)c2ccccc2)c(O)c1
T/C (dose: 100.0 mg/kg/injection, schedule: Q04DX002 (ip), vehicle: saline with Tween-80): 100 % of control | T/C (dose: 200.0 mg/kg/injection, schedule: Q04DX002 (ip), vehicle: saline with Tween-80): 98 % of control | T/C (dose: 400.0 mg/kg/injection, schedule: Q04DX002 (ip), vehicle: saline with Tween-80): 100 % of control
